Assays:
liver cells [1] = assay: In vivo LNP delivery of DNA encoding firefly luciferase, bioluminescent imaging (BLI) at 48 hr; parameters: species or system BALB/C mice; settings: for Total Flux: Example 103, 0.5 mg/kg DNA intravenous, BLI at 48 hr; for Mean Luciferase Flux: DNA encoding firefly luciferase, 48 hr
Description: Adult BALB/C mice (n=3) were administered 0.5 mg/kg of DNA encoding firefly luciferase (Nature Technology Corp) formulated in a LNP composition listed in Table 4. One group of mice was treated with vehicle (PBS, Thermo Fisher Scientific, USA) as a negative control.
The location and extent of luciferase expression in treated and control mice were determined at 48 hr for DNA delivery by bioluminescent imaging (BLI) of anesthetized mice using an IVIS Lumina in vivo imaging system (Perkin Elmer) according to the manufacturer's instructions. Briefly, mice were anesthetized using isoflurane in oxygen, and placed supine on a heated stage. Mice were then administered D-luciferin (Perkin-Elmer #122799) IP, and BLI was performed.
The location and extent of luciferase expression in treated and control mice were determined at 48 hr for DNA by bioluminescent imaging (BLI) of anesthetized mice using an IVIS Lumina in vivo imaging system (Perkin Elmer) according to the manufacturer's instructions. Briefly, mice were anesthetized using isoflurane in oxygen, and placed supine on a heated stage. Mice were then administered D-luciferin (Perkin-Elmer #122799) IP, and BLI was performed. […]
Body weight loss (BWL) measurements were taken at 24 hrs post administration and luciferase expression was measured by whole body luminescence imaging (BLI) at 48 hours post-administration. […]
Luciferase expression was measured by whole body luminescence imaging (BLI) at 48 hours post-administration.

liver cells [2] = assay: In vivo LNP delivery of fLuciferase mRNA, bioluminescent imaging (BLI) at 4 hr; parameters: species or system BALB/C mice; settings: Table 14 experiment, 0.5 mg/kg fLuc mRNA i.v., 4 hr
How it was run: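 Adult female BALB/c mice (n=3/group) received 0.5 mg/kg LNP-formulated CleanCap firefly luciferase mRNA intravenously; PBS vehicle served as control. At 4 hr, mice under isoflurane were given D-luciferin IP, and whole-body bioluminescence was imaged.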

[3] = Body weight change / body weight loss 24 hours post-administration of LNP; format: in vivo, BALB/C mice
Description: In addition, the body weight of mice treated with LNP compositions of the present disclosure prepared as described in Example 77 was assessed prior to intravenous administration and 24 hours post-administration and the body weights at baseline and post-treatment were compared.
In addition, the body weight of mice treated with LNP compositions of the present disclosure was assessed prior to intravenous administration and 24 hours post-administration and the body weights at baseline and post-treatment were compared.
Body weight loss (BWL) measurements were taken at 24 hrs post administration and luciferase expression was measured by whole body luminescence imaging (BLI) at 48 hours post-administration.
Blood was drawn from control and treated mice 4 hrs post-administration for cytokine analysis, body weight loss (BWL) measurements were taken at 24 hrs post administration and luciferase expression was measured by whole body luminescence imaging (BLI) at 48 hours post-administration.

pcsk9 protein = assay: Serum Pcsk9 ELISA 7 days after LNP delivery of Cas-CLOVER mRNA and pcsk9 gRNAs (in vivo gene editing); parameters: species or system mouse; settings: serum 7 days
Description: In two separate experiments, each group of adult female BALB/C mice (n=2/group) was intravenously co-administered mRNA encoding 5′-CleanCap-5MeC-Cas-CLOVER (SEQ ID NO: 5) and a pair of gRNAs (SEQ ID NOs: 6 and 7) targeted to the first exon of the mouse pcsk9 gene.
After seven days post-administration, blood samples were drawn from the subjects. Briefly, 500 μL of blood was collected after euthanasia via cardiac puncture using 2 ml syringes and 25G needles, transferred to microcentrifuge tubes, incubated at room temperature for 1 hour, and centrifuged at 1500 g for 15 minutes to separate the cellular fraction from serum. Serum fraction (200 μL) was transferred to a new tube and stored at −80C until further analysis.
Serum levels of the pcsk9 protein in the mice were measured 7 days after administration. Results are shown in Table 23 for the first experiment and Table 24 for the second experiment. Briefly, a mouse Pcsk9 ELISA kit (Biolegend) was used to determine Pcsk9 in each serum sample following manufacturer's instructions. All serum samples were assayed in triplicate and results were expressed as percentage in Pcsk9 levels compared with Pcsk9 levels of PBS-treated mice.

CCCCC[C@H]1CC[C@H](C(=O)OCC(COC(=O)CCCCCN(CCCO)CCCCCC(=O)COC(COC(=O)[C@H]2CC[C@H](CCCCC)CC2)COC(=O)[C@H]2CC[C@H](CCCCC)CC2)COC(=O)[C@H]2CC[C@H](CCCCC)CC2)CC1 [COMPOUND NO. 37]
Total Flux (liver cells [1]; LNP with 10% DOPC): 7.64E+07 p/s
Total Flux (liver cells [1]; LNP with 10% DSPC): 1.58E+08 p/s
Mean Luciferase Flux (liver cells [1]; LNP with 43.17 % moles of the compound (DOPC 11.96/Chol 43.17/PEG-DMG 1.7, Lipid:DNA 80)): 5.80E+07 p/s
Mean Luciferase Flux (liver cells [1]; LNP with 50 % moles of the compound (DOPC 10/Chol 38.5/PEG-DMG 1.5, Lipid:DNA 80)): 1.28E+08 p/s
Mean Luciferase Flux (liver cells [2]; LNP with 43.17 % moles of the compound (Lipid:RNA 80)): 3.49E+11 p/s
Mean Luciferase Flux (liver cells [2]; LNP with 50 % moles of the compound (Lipid:RNA 80)): 3.55E+11 p/s
% body weight change ([3]; DNA LNP with 43.17 % moles of the compound): −6.0%
% body weight change ([3]; DNA LNP with 50 % moles of the compound): −10.7%
% Pcsk9 compared to control (pcsk9 protein; DSPC:DOPC molar ratio 5%:5% in LNP, 0.5 mg/kg, lipid:RNA 80:1): 50.4%
% Pcsk9 compared to control (pcsk9 protein; DSPC:DOPC molar ratio 10%:0% in LNP, 0.5 mg/kg, lipid:RNA 80:1): 39.7%
% Pcsk9 compared to control (pcsk9 protein; LNP dose 0.5 mg/kg, COMPOUND NO. 37:DOPC:Cholesterol:DMG-PEG2000 50:10:38.5:1.5, lipid:RNA 80:1): 40.6%
% Pcsk9 compared to control (pcsk9 protein; LNP dose 1.0 mg/kg, COMPOUND NO. 37:DOPC:Cholesterol:DMG-PEG2000 50:10:38.5:1.5, lipid:RNA 80:1): 23.8%

Reference: patent US20260069539A1, “LIPIDOID COMPOUNDS AND RELATED COMPOSITIONS AND USES” (Poseida Therapeutics, Inc., priority 2023, published 2026)
